These results are taken from US12258328B2, “6-membered heteroaryl-containing aminopyridine compounds as EGFR inhibitors” (YUHAN CORPORATION, priority 2021, dated 2025).

Like-named read-outs stand apart in the source and are kept apart here.

One assay has as its target EGFR del19/T790M/C797S (Homo sapiens, UniProt P00533, C797S/DEL746-750/T790M). Kind of assay: Biochemical EGFR kinase assay (Lance Ultra TR-FRET), triple mutant del19/T790M/C797S. The method, boiled down:
(§1)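 Kinase activity is measured by TR-FRET phosphopeptide detection. Compounds span 0.003 μM to 10 μM; the 1 h reaction at room temperature is quenched with EDTA, then labelled antibody (2 nM) is incubated 60 min before reading.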

A further assay deals with EGFR L858R/T790M/C797S (Homo sapiens, UniProt P00533, C797S/L858R/T790M). The assay can be described thus: Biochemical EGFR kinase assay (Lance Ultra TR-FRET), triple mutant L858R/T790M/C797S. The essentials:
as §1

A further assay deals with EGFR del19/C797S (Homo sapiens, UniProt P00533, C797S/DEL746-750). The assay can be described thus: Biochemical EGFR kinase assay (Lance Ultra TR-FRET), double mutant del19/C797S. The essentials:
as §1

The next assay addresses EGFR L858R/C797S (Homo sapiens, UniProt P00533, C797S/L858R). Kind of assay: Biochemical EGFR kinase assay (Lance Ultra TR-FRET), double mutant L858R/C797S. The essentials:
as §1

A further assay has as its target EGFR wildtype (Homo sapiens, UniProt P00533). Kind of assay: Biochemical EGFR kinase assay (Lance Ultra TR-FRET), wildtype. The essentials: as §1
The mark [1] stands for this setting: ATP at Km, read-out: IC50 del19/T790M/C797S, Km ATP.
Setting [2] is: IC50 del19/T790M/C797S, 100 μM ATP.
The mark [3] stands for this setting: ATP at Km, read-out: IC50 L858R/T790M/C797S, Km ATP.
Where [4] appears, read: IC50 L858R/T790M/C797S, 100 μM ATP.
[5] abbreviates: ATP at Km, read-out: IC50 del19/C797S, Km ATP.
[6] abbreviates: ATP at Km, read-out: IC50 L858R/C797S, Km ATP.
Setting [7] is: ATP at Km, read-out: IC50 WT, Km ATP.
Setting [8] is: Km ATP, read-out: IC50 del19/T790M/C797S (nM) Km ATP.
The mark [9] stands for this setting: Km ATP, read-out: IC50 L858R/T790M/C797S (nM) Km ATP.
Where [10] appears, read: Km ATP, read-out: IC50 del19/C797S (nM) Km ATP.
Where [11] appears, read: Km ATP, read-out: IC50 L858R/C797S (nM) Km ATP.
Where [12] appears, read: Km ATP, read-out: IC50 WT (nM) Km ATP.

Chain of EGFR wildtype (P00533 25-1210): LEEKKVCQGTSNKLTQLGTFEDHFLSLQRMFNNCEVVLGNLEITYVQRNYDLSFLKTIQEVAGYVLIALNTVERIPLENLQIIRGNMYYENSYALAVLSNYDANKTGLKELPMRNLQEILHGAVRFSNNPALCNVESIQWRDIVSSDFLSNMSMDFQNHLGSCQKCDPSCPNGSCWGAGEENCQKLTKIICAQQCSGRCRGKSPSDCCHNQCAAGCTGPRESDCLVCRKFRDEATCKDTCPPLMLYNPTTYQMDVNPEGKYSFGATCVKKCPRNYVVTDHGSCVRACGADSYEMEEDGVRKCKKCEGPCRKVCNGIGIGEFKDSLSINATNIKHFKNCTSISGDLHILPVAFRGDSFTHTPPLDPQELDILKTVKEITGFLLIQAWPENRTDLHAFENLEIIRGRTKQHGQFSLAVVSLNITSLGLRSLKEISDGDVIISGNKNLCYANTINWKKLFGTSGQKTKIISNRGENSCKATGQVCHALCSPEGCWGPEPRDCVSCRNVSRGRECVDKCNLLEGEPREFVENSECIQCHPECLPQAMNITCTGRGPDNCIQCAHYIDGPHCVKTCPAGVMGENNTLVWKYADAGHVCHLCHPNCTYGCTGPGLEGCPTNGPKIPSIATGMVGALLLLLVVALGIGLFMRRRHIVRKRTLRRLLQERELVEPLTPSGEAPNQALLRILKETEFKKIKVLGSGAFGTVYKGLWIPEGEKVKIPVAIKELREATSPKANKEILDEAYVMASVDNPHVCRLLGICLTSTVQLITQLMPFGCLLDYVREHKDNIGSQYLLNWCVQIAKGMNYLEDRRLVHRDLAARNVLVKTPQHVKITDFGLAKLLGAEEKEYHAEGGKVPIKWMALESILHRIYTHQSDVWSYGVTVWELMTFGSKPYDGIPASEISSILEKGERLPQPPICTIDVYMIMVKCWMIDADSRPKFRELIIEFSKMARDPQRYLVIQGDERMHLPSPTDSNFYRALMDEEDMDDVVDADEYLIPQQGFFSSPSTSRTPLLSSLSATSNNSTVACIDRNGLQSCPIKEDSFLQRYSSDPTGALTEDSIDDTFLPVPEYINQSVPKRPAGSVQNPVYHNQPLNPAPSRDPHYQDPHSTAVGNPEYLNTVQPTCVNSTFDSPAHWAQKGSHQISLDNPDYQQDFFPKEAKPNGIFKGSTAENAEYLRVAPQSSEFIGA
Chain of EGFR L858R/C797S (P00533 25-1210 C797S/L858R): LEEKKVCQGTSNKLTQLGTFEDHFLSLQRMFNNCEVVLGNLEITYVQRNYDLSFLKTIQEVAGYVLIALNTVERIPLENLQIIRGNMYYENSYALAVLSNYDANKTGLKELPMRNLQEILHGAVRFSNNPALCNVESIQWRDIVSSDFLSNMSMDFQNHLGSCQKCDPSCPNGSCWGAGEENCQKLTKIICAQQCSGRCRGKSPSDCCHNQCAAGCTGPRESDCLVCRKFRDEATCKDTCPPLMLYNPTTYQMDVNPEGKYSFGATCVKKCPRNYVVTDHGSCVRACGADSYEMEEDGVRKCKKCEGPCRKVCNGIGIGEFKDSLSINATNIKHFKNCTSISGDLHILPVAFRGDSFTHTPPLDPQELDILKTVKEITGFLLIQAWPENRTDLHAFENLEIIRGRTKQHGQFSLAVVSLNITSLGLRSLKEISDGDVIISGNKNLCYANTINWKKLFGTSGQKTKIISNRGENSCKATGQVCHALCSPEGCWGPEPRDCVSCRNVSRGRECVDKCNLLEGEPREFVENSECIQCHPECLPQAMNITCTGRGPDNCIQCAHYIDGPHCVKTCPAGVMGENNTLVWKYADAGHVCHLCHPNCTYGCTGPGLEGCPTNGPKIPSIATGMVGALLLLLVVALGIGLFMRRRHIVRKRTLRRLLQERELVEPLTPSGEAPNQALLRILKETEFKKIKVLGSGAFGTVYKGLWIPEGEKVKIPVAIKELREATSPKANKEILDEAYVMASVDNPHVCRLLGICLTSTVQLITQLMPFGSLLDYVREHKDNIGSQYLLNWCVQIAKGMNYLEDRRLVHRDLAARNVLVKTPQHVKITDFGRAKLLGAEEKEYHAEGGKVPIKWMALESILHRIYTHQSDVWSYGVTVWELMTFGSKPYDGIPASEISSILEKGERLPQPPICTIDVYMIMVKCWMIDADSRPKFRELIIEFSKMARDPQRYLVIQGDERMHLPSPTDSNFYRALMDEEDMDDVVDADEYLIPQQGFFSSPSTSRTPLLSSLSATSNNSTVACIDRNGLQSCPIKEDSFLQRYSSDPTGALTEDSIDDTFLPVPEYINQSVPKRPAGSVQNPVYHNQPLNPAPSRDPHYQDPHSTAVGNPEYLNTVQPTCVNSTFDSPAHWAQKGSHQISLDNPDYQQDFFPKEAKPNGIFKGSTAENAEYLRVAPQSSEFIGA
Chain of EGFR del19/T790M/C797S (P00533 with tags, fused parts or gaps DEL746-750/T790M/C797S): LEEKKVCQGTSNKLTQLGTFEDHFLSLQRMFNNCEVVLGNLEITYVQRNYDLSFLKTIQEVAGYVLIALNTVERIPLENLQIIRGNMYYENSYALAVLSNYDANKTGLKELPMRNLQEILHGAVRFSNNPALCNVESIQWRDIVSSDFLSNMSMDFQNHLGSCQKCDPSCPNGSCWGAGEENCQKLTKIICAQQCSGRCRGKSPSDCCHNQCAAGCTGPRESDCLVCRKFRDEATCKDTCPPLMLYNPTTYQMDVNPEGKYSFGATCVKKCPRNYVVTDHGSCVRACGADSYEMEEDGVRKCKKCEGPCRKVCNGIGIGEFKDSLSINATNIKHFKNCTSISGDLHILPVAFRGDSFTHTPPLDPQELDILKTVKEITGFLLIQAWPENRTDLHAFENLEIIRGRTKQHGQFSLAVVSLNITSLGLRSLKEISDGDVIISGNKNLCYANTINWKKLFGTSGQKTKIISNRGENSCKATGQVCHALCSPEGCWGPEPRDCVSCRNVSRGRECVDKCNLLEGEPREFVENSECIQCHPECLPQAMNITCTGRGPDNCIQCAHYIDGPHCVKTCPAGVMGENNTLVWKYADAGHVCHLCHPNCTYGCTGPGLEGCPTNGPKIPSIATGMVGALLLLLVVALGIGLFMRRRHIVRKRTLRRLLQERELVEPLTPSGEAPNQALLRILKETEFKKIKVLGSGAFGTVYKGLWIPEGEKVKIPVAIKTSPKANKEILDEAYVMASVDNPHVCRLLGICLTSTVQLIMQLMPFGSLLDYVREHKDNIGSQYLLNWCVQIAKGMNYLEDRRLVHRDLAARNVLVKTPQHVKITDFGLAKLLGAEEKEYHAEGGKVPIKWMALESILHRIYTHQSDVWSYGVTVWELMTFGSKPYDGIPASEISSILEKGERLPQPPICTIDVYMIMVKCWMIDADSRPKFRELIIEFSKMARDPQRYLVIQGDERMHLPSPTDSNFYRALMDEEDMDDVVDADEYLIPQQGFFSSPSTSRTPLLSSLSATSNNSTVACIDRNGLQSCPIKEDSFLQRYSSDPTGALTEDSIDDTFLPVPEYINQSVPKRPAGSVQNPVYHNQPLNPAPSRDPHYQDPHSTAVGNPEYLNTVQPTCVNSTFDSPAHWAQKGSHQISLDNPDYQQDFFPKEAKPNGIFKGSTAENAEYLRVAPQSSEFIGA
Chain of EGFR L858R/T790M/C797S (P00533 25-1210 T790M/C797S/L858R): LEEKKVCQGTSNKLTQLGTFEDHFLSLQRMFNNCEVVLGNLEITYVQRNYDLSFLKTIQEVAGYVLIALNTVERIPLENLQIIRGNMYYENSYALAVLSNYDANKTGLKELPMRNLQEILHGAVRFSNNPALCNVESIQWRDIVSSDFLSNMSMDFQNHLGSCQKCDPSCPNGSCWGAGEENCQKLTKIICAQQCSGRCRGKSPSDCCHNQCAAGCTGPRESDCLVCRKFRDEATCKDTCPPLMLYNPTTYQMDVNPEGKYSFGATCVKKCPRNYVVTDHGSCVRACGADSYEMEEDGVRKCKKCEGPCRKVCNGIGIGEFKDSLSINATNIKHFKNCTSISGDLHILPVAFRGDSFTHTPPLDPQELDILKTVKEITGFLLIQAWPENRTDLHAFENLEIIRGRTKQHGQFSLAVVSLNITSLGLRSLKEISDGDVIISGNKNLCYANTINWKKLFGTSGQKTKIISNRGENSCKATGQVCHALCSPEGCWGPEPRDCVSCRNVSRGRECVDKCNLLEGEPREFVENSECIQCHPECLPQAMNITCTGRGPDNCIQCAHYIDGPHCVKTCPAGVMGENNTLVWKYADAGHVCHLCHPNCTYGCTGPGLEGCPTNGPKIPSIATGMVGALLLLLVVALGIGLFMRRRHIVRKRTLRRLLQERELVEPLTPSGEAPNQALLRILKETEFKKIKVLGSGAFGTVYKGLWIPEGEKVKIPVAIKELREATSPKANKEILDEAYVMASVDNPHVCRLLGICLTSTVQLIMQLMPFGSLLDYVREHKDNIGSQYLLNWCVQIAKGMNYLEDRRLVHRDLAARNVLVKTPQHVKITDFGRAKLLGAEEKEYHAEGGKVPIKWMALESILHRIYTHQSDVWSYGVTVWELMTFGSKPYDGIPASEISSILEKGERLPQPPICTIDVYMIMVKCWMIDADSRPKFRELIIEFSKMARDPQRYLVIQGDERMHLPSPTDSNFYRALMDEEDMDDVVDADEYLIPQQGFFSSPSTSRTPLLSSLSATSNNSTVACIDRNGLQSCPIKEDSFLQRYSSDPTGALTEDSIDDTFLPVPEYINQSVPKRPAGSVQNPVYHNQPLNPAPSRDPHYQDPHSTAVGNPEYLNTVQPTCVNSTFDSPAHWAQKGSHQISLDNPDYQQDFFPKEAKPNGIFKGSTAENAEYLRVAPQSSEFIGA

With `CC(F)(F)c1ccc(-c2cnc(Nc3ccnc(-c4cnn(S(=O)(=O)C5CC5)c4)n3)cc2N[C@H]2CC[C@@H](CO)CC2)nc1` [Example 241, ((1s,4s)-4-((6′-((2-(1-(Cyclopropylsulfonyl)-1H-pyrazol-4-yl)pyrimidin-4-yl)amino)-5-(1,1-difluoroethyl)-[2,3′-bipyridin]-4′-yl)amino)cyclohexyl)methanol], the IC50 is 2.3 nM on EGFR del19/T790M/C797S (setting [1]); 4.4 nM against EGFR del19/T790M/C797S (setting [2]); 1.8 nM on EGFR L858R/T790M/C797S (setting [3]); 6.9 nM at EGFR L858R/T790M/C797S (setting [4]); 6.3 nM on EGFR del19/C797S (setting [5]); 12.9 nM against EGFR del19/C797S (IC50 del19/C797S, 100 μM ATP). The IC50 on EGFR L858R/C797S (setting [6]) is 2.9 nM; against EGFR L858R/C797S (IC50 L858R/C797S, 100 μM ATP), 22 nM; at EGFR wildtype (setting [7]), 20.3 nM; at EGFR wildtype (IC50 WT, 100 μM ATP), 2640 nM.

For `CN(C)C[C@H]1CC[C@@H](Nc2cc(Nc3ccnc(-c4cnn(S(=O)(=O)C5CC5)c4)n3)ncc2-c2ccc(C(C)(C)O)cn2)CC1` [Example 171, 2-(6′-((2-(1-(Cyclopropylsulfonyl)-1H-pyrazol-4-yl)pyrimidin-4-yl)amino)-4′-(((1s,4s)-4-((dimethylamino)methyl)cyclohexyl)amino)-[2,3′-bipyridin]-5-yl)propan-2-ol], the IC50 at EGFR del19/T790M/C797S (setting [1]) was 0.3 nM; at EGFR del19/T790M/C797S (setting [2]) it was 0.5 nM; at EGFR L858R/T790M/C797S (setting [3]), 0.1 nM; at EGFR L858R/T790M/C797S (setting [4]), 0.2 nM; on EGFR del19/C797S (setting [5]), 0.1 nM; against EGFR del19/C797S (IC50 del19/C797S, 100 μM ATP) it was 0.3 nM. In addition, the IC50 is 0.2 nM on EGFR L858R/C797S (setting [6]); 0.3 nM at EGFR L858R/C797S (IC50 L858R/C797S, 100 μM ATP); 0.2 nM on EGFR wildtype (setting [7]); 67.9 nM at EGFR wildtype (IC50 WT, 100 μM ATP).

In the case of `COC(c1ccc(-c2cnc(Nc3ccnc(-c4cnn(S(=O)(=O)C5CC5)c4)n3)cc2NC2CCC(CN(C)C)CC2)nc1)C(F)(F)F` (stereo not drawn) [Example 262, N^6′-(2-(1-(Cyclopropylsulfonyl)-1H-pyrazol-4-yl)pyrimidin-4-yl)-N^4′-((1s,4s)-4-((dimethylamino)methyl)cyclohexyl)-5-(2,2,2-trifluoro-1-methoxyethyl)-[2,3′-bipyridine]-4′,6′-diamine], the IC50 amounted to 1.9 nM at EGFR del19/T790M/C797S (setting [1]); 0.5 nM on EGFR L858R/T790M/C797S (setting [3]); 1.9 nM at EGFR del19/C797S (setting [5]); 0.9 nM at EGFR L858R/C797S (setting [6]); 2 nM on EGFR wildtype (setting [7]).

Turning to `Cc1cnc(-c2cnc(Nc3ccnc(-c4cnn(S(=O)(=O)C5CC5)c4)n3)cc2N[C@H]2CC[C@@](C)(O)CC2)cn1` [Example 59, (1s,4s)-4-((2-((2-(1-(Cyclopropylsulfonyl)-1H-pyrazol-4-yl)pyrimidin-4-yl)amino)-5-(5-methylpyrazin-2-yl)pyridin-4-yl)amino)-1-methylcyclohexan-1-ol], the IC50 at EGFR del19/T790M/C797S (IC50 del19/T790M/C797S (nM) 100 μM ATP, 100 μM ATP) stood at 0.4 nM; on EGFR del19/T790M/C797S (setting [8]), 0.3 nM; at EGFR L858R/T790M/C797S (IC50 L858R/T790M/C797S (nM) 100 μM ATP, 100 μM ATP), 0.7 nM; on EGFR L858R/T790M/C797S (setting [9]), 0.5 nM; against EGFR del19/C797S (IC50 del19/C797S (nM) 100 μM ATP, 100 μM ATP), 0.9 nM; at EGFR del19/C797S (setting [10]), 0.6 nM. For the same molecule, the IC50 is 7.4 nM on EGFR L858R/C797S (IC50 L858R/C797S (nM) 100 μM ATP, 100 μM ATP); 1 nM on EGFR L858R/C797S (setting [11]); > 10000 nM against EGFR wildtype (IC50 WT (nM) 100 μM ATP, 100 μM ATP); 14.8 nM at EGFR wildtype (setting [12]).

As for `CC(C)(O)c1ccc(-c2cnc(Nc3ccnc(-c4cnn(S(=O)(=O)C5CC5)c4)n3)cc2NC2CCCN(CCF)C2)nc1` (stereo not drawn) [Example 177, 2-(6′-((2-(1-(Cyclopropylsulfonyl)-1H-pyrazol-4-yl)pyrimidin-4-yl)amino)-4′-((1-(2-fluoroethyl)piperidin-3-yl)amino)-[2,3′-bipyridin]-5-yl)propan-2-ol], the IC50 at EGFR del19/T790M/C797S (setting [1]) was 0.9 nM; at EGFR L858R/T790M/C797S (setting [3]), 1.9 nM; on EGFR del19/C797S (setting [5]), 3.7 nM; at EGFR L858R/C797S (setting [6]), 9 nM; at EGFR wildtype (setting [7]), 40.5 nM.

Regarding `CN1CCC(Oc2ccc(-c3cnc(Nc4ccnc(-c5cnn(S(=O)(=O)C6CC6)c5)n4)cc3NC3CC(F)(F)C3)nc2)CC1` [Example 140, N^6′-(2-(1-(Cyclopropylsulfonyl)-1H-pyrazol-4-yl)pyrimidin-4-yl)-N^4′-(3,3-difluorocyclobutyl)-5-((1-methylpiperidin-4-yl)oxy)-[2,3′-bipyridine]-4′,6′-diamine], the IC50 was 0.2 nM at EGFR del19/T790M/C797S (setting [8]); 0.2 nM on EGFR L858R/T790M/C797S (setting [9]); 8.3 nM on EGFR del19/C797S (setting [10]); 15.1 nM at EGFR L858R/C797S (setting [11]); 67.6 nM at EGFR wildtype (setting [12]).
